From patent publication US20110182850A1, “ORGANIC COMPOUNDS AND THEIR USES” (priority 2009, published 2011) come the findings set out here.

The first experiment deals with T1, HCV NS3-4A serine protease (full-length NS3-4A protein, genotype 1a, strain HCV-1) (Hepatitis C virus genotype 1a, UniProt P26664).
T1 construct: using the full-length NS3-4A protein (genotype 1a, strain HCV-1)
T1 sequence (P26664 1658-1711): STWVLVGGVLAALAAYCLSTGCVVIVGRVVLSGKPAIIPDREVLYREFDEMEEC
T1 sequence (P26664 1027-1657): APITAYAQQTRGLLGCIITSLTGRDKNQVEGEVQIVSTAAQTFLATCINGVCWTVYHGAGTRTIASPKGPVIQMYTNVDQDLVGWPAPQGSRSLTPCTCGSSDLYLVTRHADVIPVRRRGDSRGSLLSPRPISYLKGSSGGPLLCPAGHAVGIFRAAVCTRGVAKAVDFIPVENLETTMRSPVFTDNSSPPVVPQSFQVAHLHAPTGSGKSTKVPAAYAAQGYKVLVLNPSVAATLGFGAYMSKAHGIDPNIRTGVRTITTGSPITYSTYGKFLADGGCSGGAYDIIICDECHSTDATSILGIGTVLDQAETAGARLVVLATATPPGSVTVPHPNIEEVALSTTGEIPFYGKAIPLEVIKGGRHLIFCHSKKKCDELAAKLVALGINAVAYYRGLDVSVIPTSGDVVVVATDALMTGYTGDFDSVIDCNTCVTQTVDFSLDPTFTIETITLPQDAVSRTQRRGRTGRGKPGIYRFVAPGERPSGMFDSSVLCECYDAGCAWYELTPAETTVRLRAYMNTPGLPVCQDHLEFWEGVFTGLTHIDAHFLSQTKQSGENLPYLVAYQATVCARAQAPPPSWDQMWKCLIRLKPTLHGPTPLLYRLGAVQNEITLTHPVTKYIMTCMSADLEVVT
Briefly: HCV NS3-4A protease assay. It counts as biochemical. The settings on record: Protease IC50. How it is done:
The inhibitory activity of certain compounds of Table A against HCV NS3-4A serine protease is determined in a homogenous assay using the full-length NS3-4A protein (genotype 1a, strain HCV-1) and a commercially available internally-quenched fluorogenic peptide substrate as described by Taliani, M., et al. 1996 Anal. Biochem. 240:60-67, which is incorporated by reference in its entirety.
Take `C=C[C@@H]1C[C@]1(NC(=O)[C@@H]1C[C@@]2(CN1C(=O)[C@@H](NC(=O)[C@@H](NC(=O)c1cc(C(C)C)n[nH]1)C(C)(C)C)C(C)(C)C)C(C)(C)C21CCC1)C(=O)NS(=O)(=O)C1CC1` [Compound 39, (5R,8S)-N-{(1R,2S)-1-[(cyclopropylsulfonyl)carba-moyl]-2-vinylcyclopropyl}-7-[(2S)-2-{[(2S)-2-{[(3-isopropyl-1H-pyrazol-5-yl)carbonyl]amino}-3,3-dimethylbutanoyl]amino}-3,3-dimethylbutanoyl]-10,10-dimethyl-7-azadispiro[3.0.4.1]decane-8-carboxamide]: the IC50 (as a rule, the midpoint of a concentration-inhibition curve) was determined as 6 nM.

In the case of `C=C[C@@H]1C[C@]1(NC(=O)[C@@H]1C[C@@]2(CN1C(=O)[C@@H](NC(=O)[C@@H](NC(=O)C1CNC(=O)N1)C(C)(C)C)C(C)(C)C)C(C)(C)C21CCC1)C(=O)NS(=O)(=O)C1CC1` (stereo partly drawn) [Compound 40, (5R,8S)-N-{(1R,2S)-1-[(cyclopropylsulfonyl)carba-moyl]-2-vinylcyclopropyl}-7-[(2S)-2-{[(2S)-3,3-dimethyl-2-{[(2-oxoimidazolidin-4-yl)carbonyl]amino}butanoyl]amino}-3,3-dimethylbutanoyl]-10,10-dimethyl-7-azadispiro[3.0.4.1]decane-8-carboxamide], the IC50 was 10 nM.

`C=C[C@@H]1C[C@]1(NC(=O)[C@@H]1C[C@@]2(CN1C(=O)[C@@H](NC(=O)[C@@H](NC(=O)c1ncn[nH]1)C(C)(C)C)C(C)(C)C)C(C)(C)C21CCC1)C(=O)NS(=O)(=O)C1CC1` [Compound 41, (5R,8S)-N-{(1R,2S)-1-[(cyclopropylsulfonyl)carba-moyl]-2-vinylcyclopropyl}-7-[(2S)-2-({(2S)-3,3-dimethyl-2-[(1H-1,2,4-triazol-5-ylcarbonyl)amino]butanoyl}amino)-3,3-dimethylbutanoyl]-10,10-dimethyl-7-azadispiro[3.0.4.1]decane-8-carboxamide] returned an IC50 of 25 nM.

As for `C=C[C@@H]1C[C@]1(NC(=O)[C@@H]1C[C@@]2(CN1C(=O)[C@@H](NC(=O)[C@@H](NC(=O)c1c[nH]c(=O)[nH]1)C(C)(C)C)C(C)(C)C)C(C)(C)C21CCC1)C(=O)NS(=O)(=O)C1CC1` [Compound 44, (5R,8S)-N-{(1R,2S)-1-[(cyclopropylsulfonyl)carba-moyl]-2-vinylcyclopropyl}-7-[(2S)-2-{[(2S)-3,3-dimethyl-2-{[(2-oxo-2,3-dihydro-1H-imidazol-4-yl)carbonyl]amino}butanoyl]amino}-3,3-dimethylbutanoyl]-10,10-dimethyl-7-azadispiro[3.0.4.1]decane-8-carboxamide], the IC50 stood at 2 nM.

For the compound `C=C[C@@H]1C[C@]1(NC(=O)[C@@H]1C[C@@]2(CN1C(=O)[C@@H](NC(=O)[C@H]1NC(=O)[C@@H]3CCCCN3CCCCCCC1(C)C)C(C)(C)C)C(C)(C)C21CCC1)C(=O)NS(=O)(=O)C1CC1` [Compound 53, (5R,8S)-N-{(1R,2S)-1-[(cyclopropylsulfonyl)carba-moyl]-2-vinylcyclopropyl}-7-[(2S)-2-({[(3S,15aS)-4,4-dimethyl-1-oxotetradecahydro-2H-pyrido[1,2-a][1,4]diazacyclododecin-3-yl]carbonyl}amino)-3,3-dimethylbutanoyl]-10,10-dimethyl-7-azadispiro[3.0.4.1]decane-8-carboxamide], half-maximal inhibition (IC50) was put at 3.5 nM.

The same experiment, now with this note: read-out: Protease IC50.
In the case of `C=C[C@@H]1C[C@]1(NC(=O)[C@@H]1C[C@@]2(CN1C(=O)[C@@H](NC(=O)O[C@H](C(=O)N(C)C)C(C)(C)C)C(C)(C)C)C(C)(C)C21CCC1)C(=O)NS(=O)(=O)C1CC1` [Compound 42, (1S)-1-(dimethylcarbamoyl)-2,2-dimethylpropyl [(1S)-1-{[(5R,8S)-8-({(1R,2S)-1-[(cyclopropylsulfonyl)carba-moyl]-2-vinylcyclopropyl}carbamoyl)-10,10-dimethyl-7-azadispiro[3.0.4.1]dec-7-yl]carbonyl}-2,2-dimethylpropyl]carbamate], the IC50 is 140 nM.

For `C=C[C@@H]1C[C@]1(NC(=O)[C@@H]1C[C@@]2(CN1C(=O)[C@@H](CC(=O)OC(C)(C)C)C(C)(C)C)C(C)(C)C21CCC1)C(=O)NS(=O)(=O)C1CC1` [Compound 43, tert-butyl (3S)-3-{[(5R,8S)-8-({(1R,2S)-1-[(cyclopropylsulfonyl)carba-moyl]-2-vinylcyclopropyl}carbamoyl)-10,10-dimethyl-7-azadispiro[3.0.4.1]dec-7-yl]carbonyl}-4,4-dimethylpentanoate], the IC50 amounted to 450 nM.

Consider `C=C[C@@H]1C[C@]1(NC(=O)[C@@H]1C[C@@]2(CN1C(=O)[C@@H](NC(=O)[C@@H](CC(=O)OC(C)(C)C)C(C)(C)C)C(C)(C)C)C(C)(C)C21CCC1)C(=O)NS(=O)(=O)C1CC1` [Compound 45, tert-butyl (3S)-3-{[(1S)-1-{[(5R,8S)-8-({(1R,2S)-1-[(cyclopropylsulfonyl)carba-moyl]-2-vinylcyclopropyl}carbamoyl)-10,10-dimethyl-7-azadispiro[3.0.4.1]dec-7-yl]carbonyl}-2,2-dimethylpropyl]carbamoyl}-4,4-dimethylpentanoate], for which the IC50 is 65 nM.

Turning to `C=C[C@@H]1C[C@]1(NC(=O)[C@@H]1C[C@@]2(CN1C(=O)[C@@H](NC(=O)[C@@H](NS(=O)(=O)c1ccccc1)C(C)(C)C)C(C)(C)C)C(C)(C)C21CCC1)C(=O)NS(=O)(=O)C1CC1` [Compound 46, (5R,8S)-N-{(1R,2S)-1-[(cyclopropylsulfonyl)carba-moyl]-2-vinylcyclopropyl}-7-[(2S)-2-({(2S)-3,3-dimethyl-2-[(phenylsulfonyl)amino]butanoyl}amino)-3,3-dimethylbutanoyl]-10,10-dimethyl-7-azadispiro[3.0.4.1]decane-8-carboxamide], the IC50 is 150 nM.

As to `C=C[C@@H]1C[C@]1(NC(=O)[C@@H]1C[C@@]2(CN1C(=O)[C@@H](NC(=O)[C@@H](NS(C)(=O)=O)C(C)(C)C)C(C)(C)C)C(C)(C)C21CCC1)C(=O)NS(=O)(=O)C1CC1` [Compound 47, (5R,8S)-N-{(1R,2S)-1-[(cyclopropylsulfonyl)carba-moyl]-2-vinylcyclopropyl}-7-[(2S)-2-({(2S)-3,3-dimethyl-2-[(methylsulfonyl)amino]butanoyl}amino)-3,3-dimethylbutanoyl]-10,10-dimethyl-7-azadispiro[3.0.4.1]decane-8-carboxamide], the concentration for half-maximal inhibition (IC50) worked out at 65 nM.

For the compound `C=C[C@@H]1C[C@]1(NC(=O)[C@@H]1C[C@@]2(CN1C(=O)[C@@H](NC(=O)[C@@H](NS(=O)(=O)N(C)C)C(C)(C)C)C(C)(C)C)C(C)(C)C21CCC1)C(=O)NS(=O)(=O)C1CC1` [Compound 48, (5R,8S)-N-{(1R,2S)-1-[(cyclopropylsulfonyl)carba-moyl]-2-vinylcyclopropyl}-7-[(2S)-2-{[(2S)-2-{[(dimethylamino)sulfonyl]amino}-3,3-dimethylbutanoyl]amino}-3,3-dimethylbutanoyl]-10,10-dimethyl-7-azadispiro[3.0.4.1]decane-8-carboxamide], the IC50 turned out to be 95 nM.

As for `C=C[C@@H]1C[C@]1(NC(=O)[C@@H]1C[C@@]2(CN1C(=O)[C@@H](NC(=O)[C@@H](NS(=O)(=O)c1ncn[nH]1)C(C)(C)C)C(C)(C)C)C(C)(C)C21CCC1)C(=O)NS(=O)(=O)C1CC1` [Compound 49, (5R,8S)-N-{(1R,2S)-1-[(cyclopropylsulfonyl)carba-moyl]-2-vinylcyclopropyl}-7-[(2S)-2-({(2S)-3,3-dimethyl-2-[(1H-1,2,4-triazol-5-ylsulfonyl)amino]butanoyl}amino)-3,3-dimethylbutanoyl]-10,10-dimethyl-7-azadispiro[3.0.4.1]decane-8-carboxamide], the IC50 is 200 nM.

Consider `C=C[C@@H]1C[C@]1(NC(=O)[C@@H]1C[C@@]2(CN1C(=O)[C@@H](NC(=O)[C@@H](NS(=O)(=O)Cc1ccccc1)C(C)(C)C)C(C)(C)C)C(C)(C)C21CCC1)C(=O)NS(=O)(=O)C1CC1` [Compound 50, (5R,8S)-7-[(2S)-2-({(2S)-2-[(benzylsulfonyl)amino]-3,3-dimethylbutanoyl}amino)-3,3-dimethylbutanoyl]-N-{(1R,2S)-1-[(cyclopropylsulfonyl)carba-moyl]-2-vinylcyclopropyl}-10,10-dimethyl-7-azadispiro[3.0.4.1]decane-8-carboxamide], for which the IC50 turned out to be 20 nM.

On to `C=C[C@@H]1C[C@]1(NC(=O)[C@@H]1C[C@@]2(CN1C(=O)[C@@H](NC(=O)[C@@H](NS(=O)(=O)c1c(C)noc1C)C(C)(C)C)C(C)(C)C)C(C)(C)C21CCC1)C(=O)NS(=O)(=O)C1CC1` [Compound 51, (5R,8S)-N-{(1R,2S)-1-[(cyclopropylsulfonyl)carba-moyl]-2-vinylcyclopropyl}-7-[(2S)-2-{[(2S)-2-{[(3,5-dimethylisoxazol-4-yl)sulfonyl]amino}-3,3-dimethylbutanoyl]amino}-3,3-dimethylbutanoyl]-10,10-dimethyl-7-azadispiro[3.0.4.1]decane-8-carboxamide], for which the IC50 is 250 nM.

Consider `C=C[C@@H]1C[C@]1(NC(=O)[C@@H]1C[C@@]2(CN1C(=O)[C@@H](NC(=O)[C@@H](NS(=O)(=O)c1cn(C)cn1)C(C)(C)C)C(C)(C)C)C(C)(C)C21CCC1)C(=O)NS(=O)(=O)C1CC1` [Compound 52, (5R,8S)-N-{(1R,2S)-1-[(cyclopropylsulfonyl)carba-moyl]-2-vinylcyclopropyl}-7-[(2S)-2-{[(2S)-3,3-dimethyl-2-{[(1-methyl-1H-imidazol-4-yl)sulfonyl]amino}butanoyl]amino}-3,3-dimethylbutanoyl]-10,10-dimethyl-7-azadispiro[3.0.4.1]decane-8-carboxamide], for which the IC50 turned out to be 200 nM.

As for `C=C[C@@H]1C[C@]1(NC(=O)[C@@H]1C[C@@]2(CN1C(=O)[C@@H](NC(=O)c1cocn1)C(C)(C)C)C(C)(C)C21CCC1)C(=O)NS(=O)(=O)C1CC1` [Compound 54, (5R,8S)-N-{(1R,2S)-1-[(cyclopropylsulfonyl)carba-moyl]-2-vinylcyclopropyl}-7-{(2S)-3,3-dimethyl-2-[(1,3-oxazol-4-ylcarbonyl)amino]butanoyl}-10,10-dimethyl-7-azadispiro[3.0.4.1]decane-8-carboxamide], the IC50 stood at 2150 nM.
